Measured values as given in the NIST ThermoML archive (doi:10.1016/j.tca.2014.03.030).
Numbers after ± are expanded uncertainties.

Tests used:
[1] = Molar enthalpy of transition or fusion
[2] = DTA

Molar enthalpy of transition or fusion ([1]; Crystal) | Normal melting temperature ([2]; Crystal) | Molar enthalpy of transition or fusion ([1]; Crystal 1) | Normal melting temperature ([2]; Crystal 1) | SMILES
5.08 ± 0.311 kcal/mol | 81.47 ± 2.1 °C |  |  | CCCCCCCCCC(=O)NCCc1ccc(O)cc1 [N-[2-(4-hydroxyphenyl)ethyl]decanamide]
6.69 ± 0.382 kcal/mol | 91.39 ± 2.1 °C |  |  | CCCCCCCCCCCC(=O)NCCc1ccc(O)cc1 [N-[2-(4-hydroxyphenyl)ethyl]dodecanamide]
 |  | 11.8 ± 0.645 kcal/mol | 103.76 ± 2.1 °C | CCCCCCCCCCCCCCCC(=O)NCCc1ccc(O)cc1 [N-[2-(4-hydroxyphenyl)ethyl]hexadecanamide]
 |  | 10.4 ± 0.574 kcal/mol | 98.1 ± 2.1 °C | CCCCCCCCCCCCCC(=O)NCCc1ccc(O)cc1 [N-[2-(4-hydroxyphenyl)ethyl]tetradecanamide]
